# Test results reported in US4565861A, “Serirubicum” (Microbial Chemistry Research Foundation, priority 1983, dated 1986).
# Read-outs that look alike come from different tables or passages of the source.
# Tests used:
# [1] = tested on: Protein synthesis in L1210 cells; test: Inhibition of protein synthesis in L1210 cells; assay type: cell-based; settings: at 10 μg/ml
# Description: (§1) These findings indicated its therapeutic effect on tumors in experimental animals.
# L1210 cells = test: Growth inhibition of cultured L1210 cells; assay type: cell-based
# Description: as §1
# [2] = tested on: RNA synthesis in L1210 cells; test: Inhibition of RNA synthesis in L1210 cells; assay type: cell-based
# Description: as §1
# M. lysodeikticus IF03333 = test: Antimicrobial activity, agar dilution method; assay type: cell-based
# Description: (§2) The antimicrobial activity of serirubicin according to the present invention was examined. It is expressed as minimum inhibitory concentration (MIC) determined by the agar dilution method.
# S. aureus MS9610 = test: Antimicrobial activity, agar dilution method; assay type: cell-based
# Description: as §2
# Sal. typhi T-63 = test: Antimicrobial activity, agar dilution method; assay type: cell-based
# Description: as §2
# S. aureus MS8710 = test: Antimicrobial activity, agar dilution method; assay type: cell-based
# Description: as §2
# B. cereus ATCC10702 = test: Antimicrobial activity, agar dilution method; assay type: cell-based
# Description: as §2
# S. aureus 209P = test: Antimicrobial activity, agar dilution method; assay type: cell-based
# Description: as §2
# Coryn. bovis 1810 = test: Antimicrobial activity, agar dilution method; assay type: cell-based
# Description: as §2
# B. subtilis PCI219 = test: Antimicrobial activity, agar dilution method; assay type: cell-based
# Description: as §2
# S. aureus Smith = test: Antimicrobial activity, agar dilution method; assay type: cell-based
# Description: as §2
# [3] = tested on: DNA synthesis in L1210 cells; test: Inhibition of DNA synthesis in L1210 cells; assay type: cell-based
# Description: as §1
# L1210 leukemia cells = assay type: in vivo, CDF1 mice; settings: i.p., daily for 10 days
# Procedure: CDF1 mice were intraperitoneally implanted with 1×10^5 L1210 leukemia cells/mouse as a suspension. After the implantation, 0.25 ml of a solution containing the test compound was intraperitoneally injected into each mouse, each day, for 10 days, beginning on the day of implantation.
# The increase of life span (%) compared with the control group consisting of mice administered with physiological saline solution instead of the test compound solution was calculated from the following equation: [formula]
structure (smiles),measurement,setting,value
CCC1(O)CC(OC2CC(N(C)C)C(OC3CC4OC5CC(=O)C(C)OC5OC4C(C)O3)C(C)O2)c2cc3c(c(O)c2C1OC1CC(N(C)C)C(OC2CC4OC5CC(=O)C(C)OC5OC4C(C)O2)C(C)O1)C(=O)c1cccc(O)c1C3=O (stereo not drawn) [serirubicin],Protein synthesis inhibition,[1],32%
same,ID50 Growth,L1210 cells; L1210 cells,0.004 µg/mL
same,Inhibition of growth (in words),L1210 cells; cultured L1210 cells,inhibited the growth of cultured L1210 cells at very low concentrations
same,ID50 RNA synthesis,[2]; L1210 cells,0.086 µg/mL
same,Inhibition of RNA synthesis (in words),[2]; cultured L1210 cells,RNA synthesis was inhibited at particularly low concentration
same,MIC,M. lysodeikticus IF03333,0.78 µg/mL
same,MIC,S. aureus MS9610,0.78 µg/mL
same,MIC,Sal. typhi T-63,> 3.12 µg/mL
same,MIC,S. aureus MS8710,0.78 µg/mL
same,MIC,B. cereus ATCC10702,0.78 µg/mL
same,MIC,S. aureus 209P,0.78 µg/mL
same,MIC,Coryn. bovis 1810,0.39 µg/mL
same,MIC,B. subtilis PCI219,0.78 µg/mL
same,MIC,S. aureus Smith,1.56 µg/mL
same,ID50 DNA synthesis,[3],0.46 µg/mL
same,Increase of life span,L1210 leukemia cells; 0.031 mg/kg/day,119%
same,Increase of life span,L1210 leukemia cells; 0.063 mg/kg/day,113%
same,Increase of life span,L1210 leukemia cells; 0.125 mg/kg/day,137%
same,Increase of life span,L1210 leukemia cells; 0.25 mg/kg/day,274%
same,Increase of life span,L1210 leukemia cells; 0.5 mg/kg/day,143%
same,Increase of life span,L1210 leukemia cells; 1.0 mg/kg/day,149%
